In paper PMC3174152, “Pseudomonas aeruginosa 4-Amino-4-Deoxychorismate Lyase: Spatial Conservation of an Active Site Tyrosine and Classification of Two Types of Enzyme” (PLoS ONE, 2011):

Molecular target: T1, PaPabC (Pseudomonas aeruginosa, UniProt Q9HZN6)
T1 construct: gene pabC; full length (271 residues), N-terminal His6 tag with TEV site kept (not cleaved), modified pET15b, E. coli BL21(DE3) Gold; homodimer, about 50 kDa
T1 sequence (Q9HZN6 1-271): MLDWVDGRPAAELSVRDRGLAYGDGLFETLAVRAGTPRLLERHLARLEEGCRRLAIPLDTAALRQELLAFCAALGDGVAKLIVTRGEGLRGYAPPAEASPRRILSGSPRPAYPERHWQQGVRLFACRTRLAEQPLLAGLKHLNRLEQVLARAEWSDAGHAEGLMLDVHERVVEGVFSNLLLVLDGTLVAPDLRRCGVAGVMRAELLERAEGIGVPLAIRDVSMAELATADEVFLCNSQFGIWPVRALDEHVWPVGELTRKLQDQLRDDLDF
Assay: X-ray crystal structure ([…] Å), omit map
Format: binding
Details: covalent, Schiff base with Lys140; Tyr92 of partner subunit contacts PLP O3; crystallised with 0.1 mM PLP and 10 mM PABA, pH 6.5

Cc1ncc(COP(=O)(O)O)c(C=O)c1O [PLP]
X-ray crystal structure (1.75 Å), omit map: The presence of the PLP cofactor covalently bound to Lys140 was confirmed
